ChEMBL document CHEMBL6153090
Activity calls are given as the source filed them. The rule behind the calls is not given here.

Legend:
[1] = target: Sigma intracellular receptor 2 (Homo sapiens, UniProt Q5BJF2); assay: Displacement of [3H]-pentazocine from human Sigma 2 receptor at 10 uM by cell-based radioligand binding assay
Cannabinoid receptor 1 [2] = target: T1, Cannabinoid receptor 1 (Homo sapiens, UniProt P21554); assay: Agonist activity at CB1 receptor in MDA-MB-231 cells at 100 to 300 uM by FLIPR assay; assay type: functional, cell-based; details: filed as agonist, dose 100-300 µM
T1 sequence (P21554 whole entry): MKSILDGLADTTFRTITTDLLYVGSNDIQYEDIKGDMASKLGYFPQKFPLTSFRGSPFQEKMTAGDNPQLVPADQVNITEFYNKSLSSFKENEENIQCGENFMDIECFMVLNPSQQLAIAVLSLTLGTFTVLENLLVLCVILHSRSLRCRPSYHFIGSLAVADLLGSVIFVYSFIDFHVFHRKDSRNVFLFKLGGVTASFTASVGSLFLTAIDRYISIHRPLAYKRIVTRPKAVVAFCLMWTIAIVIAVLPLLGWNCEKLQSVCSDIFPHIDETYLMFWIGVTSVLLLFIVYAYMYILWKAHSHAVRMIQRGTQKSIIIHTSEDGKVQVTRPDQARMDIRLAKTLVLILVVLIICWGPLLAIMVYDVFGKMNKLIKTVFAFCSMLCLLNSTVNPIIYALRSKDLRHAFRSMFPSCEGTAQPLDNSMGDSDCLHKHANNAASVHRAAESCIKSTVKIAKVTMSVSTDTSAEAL

Cannabinoid receptor 1 [3] = target: T1, Cannabinoid receptor 1; assay: Agonist activity at CB1 receptor in human MDA-MB-231 cells by FLIPR assay; assay type: functional, cell-based
Cannabinoid receptor 1 [4] = target: T1, Cannabinoid receptor 1; assay: Agonist activity at CB1 receptor in MDA-MB-231 cells at 300 uM by FLIPR assay; assay type: functional, cell-based
Histamine H1 receptor = Histamine H1 receptor (Homo sapiens, UniProt P35367); assay: Binding affinity to H1 receptor (unknown origin) assessed as inhibition constant
Chain of Histamine H1 receptor (P35367 whole entry): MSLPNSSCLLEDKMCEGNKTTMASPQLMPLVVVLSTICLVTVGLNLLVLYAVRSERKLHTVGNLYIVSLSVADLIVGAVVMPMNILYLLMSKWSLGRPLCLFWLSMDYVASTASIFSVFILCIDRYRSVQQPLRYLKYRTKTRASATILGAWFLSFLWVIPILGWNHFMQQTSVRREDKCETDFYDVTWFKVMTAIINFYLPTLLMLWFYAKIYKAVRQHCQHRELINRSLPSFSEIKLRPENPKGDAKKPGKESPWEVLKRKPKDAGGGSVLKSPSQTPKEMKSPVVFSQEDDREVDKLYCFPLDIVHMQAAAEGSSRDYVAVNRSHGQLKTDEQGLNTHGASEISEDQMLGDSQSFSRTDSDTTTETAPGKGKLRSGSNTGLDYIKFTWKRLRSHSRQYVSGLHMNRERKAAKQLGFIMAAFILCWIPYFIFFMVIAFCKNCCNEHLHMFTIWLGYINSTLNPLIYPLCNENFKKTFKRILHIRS

[5] = target: 5-hydroxytryptamine receptor 2B (Homo sapiens, UniProt P41595); assay: Displacement of [3H]-LSD from human 5-HT2B receptor at 10 uM by cell-based radioligand binding assay
Chain of 5-hydroxytryptamine receptor 2B (P41595 whole entry): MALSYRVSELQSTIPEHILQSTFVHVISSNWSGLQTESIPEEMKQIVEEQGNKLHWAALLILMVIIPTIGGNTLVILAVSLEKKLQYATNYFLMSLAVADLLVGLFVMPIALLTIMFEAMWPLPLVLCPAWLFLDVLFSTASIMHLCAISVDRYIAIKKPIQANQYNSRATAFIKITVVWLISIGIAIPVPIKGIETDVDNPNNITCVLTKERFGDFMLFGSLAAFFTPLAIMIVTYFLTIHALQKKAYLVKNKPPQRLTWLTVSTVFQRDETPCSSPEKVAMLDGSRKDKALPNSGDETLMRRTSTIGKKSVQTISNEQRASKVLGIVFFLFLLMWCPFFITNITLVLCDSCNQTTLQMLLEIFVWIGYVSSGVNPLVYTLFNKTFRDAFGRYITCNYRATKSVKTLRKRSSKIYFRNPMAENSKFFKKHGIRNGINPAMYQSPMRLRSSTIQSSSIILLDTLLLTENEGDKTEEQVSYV

[6] = target: Sigma non-opioid intracellular receptor 1 (Homo sapiens, UniProt Q99720); assay: Displacement of [3H]-pentazocine from human Sigma 1 receptor at 10 uM by cell-based radioligand binding assay
Chain of Sigma non-opioid intracellular receptor 1 (Q99720 whole entry): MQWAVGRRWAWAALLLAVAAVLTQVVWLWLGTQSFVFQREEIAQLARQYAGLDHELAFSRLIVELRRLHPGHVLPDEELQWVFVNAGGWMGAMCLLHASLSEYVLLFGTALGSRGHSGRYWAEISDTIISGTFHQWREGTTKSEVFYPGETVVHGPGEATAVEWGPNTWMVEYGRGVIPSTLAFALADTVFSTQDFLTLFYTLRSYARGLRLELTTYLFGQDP

Translocator protein = Translocator protein (Homo sapiens, UniProt P30536); assay: Displacement of [3H]-PK11195 from human PBR receptor at 10 uM by cell-based radioligand binding assay
Chain of Translocator protein (P30536 whole entry): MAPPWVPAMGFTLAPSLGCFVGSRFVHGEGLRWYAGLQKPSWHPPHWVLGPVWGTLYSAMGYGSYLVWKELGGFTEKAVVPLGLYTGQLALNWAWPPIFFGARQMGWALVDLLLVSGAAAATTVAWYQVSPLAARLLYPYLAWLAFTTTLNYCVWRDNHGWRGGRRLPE

D(2) dopamine receptor = D(2) dopamine receptor (Homo sapiens, UniProt P14416); assay: Displacement of [3H]-N-Methylspiperone from human D2 receptor at 10 uM by cell-based radioligand binding assay
Chain of D(2) dopamine receptor (P14416 whole entry): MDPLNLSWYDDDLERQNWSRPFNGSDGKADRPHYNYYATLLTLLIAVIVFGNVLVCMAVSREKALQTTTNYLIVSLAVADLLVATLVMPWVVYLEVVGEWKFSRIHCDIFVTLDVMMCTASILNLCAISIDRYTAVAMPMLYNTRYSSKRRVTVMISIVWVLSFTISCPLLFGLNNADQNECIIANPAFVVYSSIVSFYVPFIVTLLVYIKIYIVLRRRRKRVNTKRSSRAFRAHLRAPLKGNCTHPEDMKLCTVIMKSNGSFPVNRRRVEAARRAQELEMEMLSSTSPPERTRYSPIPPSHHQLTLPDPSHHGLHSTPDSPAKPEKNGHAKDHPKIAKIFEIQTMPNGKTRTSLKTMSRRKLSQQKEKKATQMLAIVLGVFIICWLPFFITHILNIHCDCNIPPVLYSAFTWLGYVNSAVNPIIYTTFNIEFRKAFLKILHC

[7] = target: Kappa-type opioid receptor (Homo sapiens, UniProt P41145); assay: Displacement of [3H]-U69593 human KOR receptor at 10 uM by cell-based radioligand binding assay
Chain of Kappa-type opioid receptor (P41145 whole entry): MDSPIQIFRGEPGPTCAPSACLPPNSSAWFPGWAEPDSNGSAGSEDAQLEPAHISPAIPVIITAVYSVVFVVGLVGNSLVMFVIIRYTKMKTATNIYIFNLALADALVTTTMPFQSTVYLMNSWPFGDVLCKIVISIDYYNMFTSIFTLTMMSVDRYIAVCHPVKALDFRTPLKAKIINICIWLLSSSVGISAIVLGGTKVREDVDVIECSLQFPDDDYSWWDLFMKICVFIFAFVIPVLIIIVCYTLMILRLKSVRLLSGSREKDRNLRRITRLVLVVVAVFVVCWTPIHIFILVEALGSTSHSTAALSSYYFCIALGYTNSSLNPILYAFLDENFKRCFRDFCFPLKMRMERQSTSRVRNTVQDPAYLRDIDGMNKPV

D(3) dopamine receptor = D(3) dopamine receptor (Homo sapiens, UniProt P35462); assay: Displacement of [3H]-N-Methylspiperone from human D3 receptor at 10 uM by cell-based radioligand binding assay
Chain of D(3) dopamine receptor (P35462 whole entry): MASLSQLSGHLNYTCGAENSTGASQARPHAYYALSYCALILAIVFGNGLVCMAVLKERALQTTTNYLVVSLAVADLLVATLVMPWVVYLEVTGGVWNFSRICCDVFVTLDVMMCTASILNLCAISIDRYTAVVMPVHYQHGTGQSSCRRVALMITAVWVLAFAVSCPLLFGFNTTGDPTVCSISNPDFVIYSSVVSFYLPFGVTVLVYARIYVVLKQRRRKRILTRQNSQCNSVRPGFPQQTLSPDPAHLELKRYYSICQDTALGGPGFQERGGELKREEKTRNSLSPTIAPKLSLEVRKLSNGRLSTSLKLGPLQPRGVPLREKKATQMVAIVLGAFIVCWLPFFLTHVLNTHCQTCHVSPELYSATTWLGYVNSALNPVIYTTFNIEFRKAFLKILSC

D(4) dopamine receptor = target: T2, D(4) dopamine receptor (Homo sapiens, UniProt P21917); assay: Displacement of [3H]-N-methylspiperone from human D4 receptor at 10 uM by cell-based radioligand binding assay
T2 sequence (P21917 whole entry): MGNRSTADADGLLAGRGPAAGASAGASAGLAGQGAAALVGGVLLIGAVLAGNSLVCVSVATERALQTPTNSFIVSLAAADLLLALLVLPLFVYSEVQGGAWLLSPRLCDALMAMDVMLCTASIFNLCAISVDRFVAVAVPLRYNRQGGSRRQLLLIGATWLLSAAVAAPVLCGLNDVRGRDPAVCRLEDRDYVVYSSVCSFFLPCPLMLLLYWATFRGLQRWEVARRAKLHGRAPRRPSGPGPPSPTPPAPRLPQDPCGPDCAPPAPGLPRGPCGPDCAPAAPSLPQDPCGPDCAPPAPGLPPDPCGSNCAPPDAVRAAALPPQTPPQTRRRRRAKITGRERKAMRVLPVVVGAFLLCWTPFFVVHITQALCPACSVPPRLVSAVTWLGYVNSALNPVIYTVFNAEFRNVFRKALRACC

[8] = target: Sodium-dependent noradrenaline transporter (Homo sapiens, UniProt P23975); assay: Binding affinity to NET receptor (unknown origin) assessed as inhibition constant
Chain of Sodium-dependent noradrenaline transporter (P23975 whole entry): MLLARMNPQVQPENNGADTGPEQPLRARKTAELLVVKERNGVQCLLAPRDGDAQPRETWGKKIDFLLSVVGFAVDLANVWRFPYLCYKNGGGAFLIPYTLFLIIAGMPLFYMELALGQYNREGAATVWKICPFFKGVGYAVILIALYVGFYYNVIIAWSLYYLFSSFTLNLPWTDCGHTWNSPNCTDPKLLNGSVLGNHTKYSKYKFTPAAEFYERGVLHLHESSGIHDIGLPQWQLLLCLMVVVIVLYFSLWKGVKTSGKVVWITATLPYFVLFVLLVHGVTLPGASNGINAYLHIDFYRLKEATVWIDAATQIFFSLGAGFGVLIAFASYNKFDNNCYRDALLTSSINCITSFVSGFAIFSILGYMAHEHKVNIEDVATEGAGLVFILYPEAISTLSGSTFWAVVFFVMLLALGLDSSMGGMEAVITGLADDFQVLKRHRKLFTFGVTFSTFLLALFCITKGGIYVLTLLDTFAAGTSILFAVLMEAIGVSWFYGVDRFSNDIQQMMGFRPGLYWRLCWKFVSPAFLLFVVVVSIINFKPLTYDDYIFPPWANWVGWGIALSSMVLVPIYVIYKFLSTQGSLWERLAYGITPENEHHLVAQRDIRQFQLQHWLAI

[9] = Activation of GIRK channel (unknown origin) assessed as increase in fluorescence analysis; design: species or system Homo sapiens

Chain of Sigma intracellular receptor 2 (Q5BJF2 whole entry): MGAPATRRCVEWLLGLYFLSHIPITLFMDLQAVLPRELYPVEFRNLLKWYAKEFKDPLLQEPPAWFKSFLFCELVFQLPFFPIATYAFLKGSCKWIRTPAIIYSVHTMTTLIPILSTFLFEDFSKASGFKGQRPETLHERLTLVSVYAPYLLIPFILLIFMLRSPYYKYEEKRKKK

Row | SMILES | Ki [1] [µM] | Ki [5] [nM] | also measured
1 | C=C(C)[C@H]1CCC(C)=C[C@@H]1c1c(O)cc(CCCCC)cc1OCCCCOc1cc(CCCCC)cc(O)c1[C@@H]1C=C(C)CC[C@H]1C(=C)C | 5.5 | – | –
2 | C=C(C)[C@@H]1CCC(C)=C[C@H]1c1c(OC)cc(CCCCC)cc1OCCCCCOc1cc(CCCCC)cc(OC)c1[C@@H]1C=C(C)CC[C@H]1C(=C)C | – | – | Activity (Cannabinoid receptor 1 [2]): Active; EC50 (Cannabinoid receptor 1 [3]): 40 µM
3 | C=C(C)[C@@H]1CCC(C)=C[C@H]1c1c(O)cc(CCCCC)cc1O | – | – | Activity (Cannabinoid receptor 1 [4]): inactive
4 | C=C(C)[C@@H]1CCC(C)=C[C@H]1c1c(OC)cc(CCCCC)cc1OCCCCOc1cc(CCCCC)cc(OC)c1[C@@H]1C=C(C)CC[C@H]1C(=C)C | – | – | Ki (Histamine H1 receptor): 600 nM
5 | C=C(C)[C@H]1CCC(C)=C[C@@H]1c1c(O)cc(CCCCC)cc1OCCOc1cc(CCCCC)cc(O)c1[C@@H]1C=C(C)CC[C@H]1C(=C)C | 0.8 | 1700 | –
6 | C=C(C)[C@H]1CCC(C)=C[C@@H]1c1c(O)cc(CCCCC)cc1OCCCCCCCCOc1cc(CCCCC)cc(O)c1[C@@H]1C=C(C)CC[C@H]1C(=C)C | 1.9 | 4500 | Ki [6]: 1900 nM
7 | Cn1ccc2cc3c(cc21)CCN3C(=O)Nc1cccnc1 | – | 4.7 | –
8 | C=C(C)[C@@H]1CCC(C)=C[C@H]1c1c(OC)cc(CCCCC)cc1OCCCCCCOc1cc(CCCCC)cc(OC)c1[C@@H]1C=C(C)CC[C@H]1C(=C)C | 5.5 | 8700 | –
9 | C=C(C)[C@@H]1CCC(C)=C[C@H]1c1c(OC)cc(CCCCC)cc1OCCOCCOCCOCCOc1cc(CCCCC)cc(OC)c1[C@@H]1C=C(C)CC[C@H]1C(=C)C | 8.1 | – | –
10 | C=C(C)[C@@H]1CCC(C)=C[C@H]1c1c(OC)cc(CCCCC)cc1OCCCOc1cc(CCCCC)cc(OC)c1[C@@H]1C=C(C)CC[C@H]1C(=C)C | 3.4 | – | Activity (Cannabinoid receptor 1 [2]): Active; Ki (Translocator protein): 2700 nM; EC50 (Cannabinoid receptor 1 [3]): 42.2 µM
11 | C=C(C)[C@@H]1CCC(C)=C[C@H]1c1c(OC)cc(CCCCC)cc1OCCCCCCCCOc1cc(CCCCC)cc(OC)c1[C@@H]1C=C(C)CC[C@H]1C(=C)C | 2.7 | > 10000 | –
12 | C=C(C)[C@@H]1CCC(C)=C[C@H]1c1c(O)cc(CCCCC)cc1OCCCCCCCCCCCCOc1cc(CCCCC)cc(O)c1[C@@H]1C=C(C)CC[C@H]1C(=C)C | – | 2400 | Ki (D(2) dopamine receptor): > 10000 nM; Ki [7]: 1700 nM
13 | C=C(C)[C@H]1CCC(C)=C[C@@H]1c1c(OC)cc(CCCCC)cc1OCCCCCCCOc1cc(CCCCC)cc(OC)c1[C@H]1C=C(C)CC[C@@H]1C(=C)C | 4.7 | – | –
14 | C=C(C)[C@H]1CCC(C)=C[C@@H]1c1c(OC)cc(CCCCC)cc1OCCCCCCCCCCCCOc1cc(CCCCC)cc(OC)c1[C@H]1C=C(C)CC[C@@H]1C(=C)C | – | 6600 | Ki (Translocator protein): 900 nM
15 | C=C(C)[C@H]1CCC(C)=C[C@@H]1c1c(O)cc(CCCCC)cc1OCCCCCOc1cc(CCCCC)cc(O)c1[C@@H]1C=C(C)CC[C@H]1C(=C)C | 6.9 | 2100 | –
16 | C=C(C)[C@@H]1CCC(C)=C[C@H]1c1c(O)cc(CCCCC)cc1OCCCCCCCOc1cc(CCCCC)cc(O)c1[C@@H]1C=C(C)CC[C@H]1C(=C)C | – | 1800 | Ki (D(2) dopamine receptor): 600 nM
17 | C=C(C)[C@H]1CCC(C)=C[C@@H]1c1c(O)cc(CCCCC)cc1OCCCCCCOc1cc(CCCCC)cc(O)c1[C@@H]1C=C(C)CC[C@H]1C(=C)C | 0.7 | – | –
18 | C=C(C)[C@@H]1CCC(C)=C[C@H]1c1c(O)cc(CCCCC)c2c1OCC2 | – | 3300 | Ki (D(3) dopamine receptor): 400 nM; Ki (D(4) dopamine receptor): 500 nM; Ki (D(2) dopamine receptor): 400 nM; Ki [6]: 1800 nM; Ki [8]: 5.7 µM
19 | Cc1c(C(=O)c2cccc3ccccc23)c2cccc3c2n1[C@H](CN1CCOCC1)CO3 [WIN-552122] | – | – | EC50 [9]: 13.1 µM
